From patent US6737383B1, “Herbicidal oxadiazolidines” (priority 1999, dated 2004)

What was measured:
[1] = system: bedstraw; experiment: Test B pre/postemergence bedstraw; assay type: in vivo, Galium aparine; conditions: Preemergence
Outline: (§1)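 Response is a visual 0-to-10 score relative to untreated plants, where 0 means no effect and 10 means complete control, taken twelve to sixteen days after application. Treatments went onto soil at planting and onto foliage of 1- to 4-leaf plants, using a surfactant-containing non-phytotoxic solvent.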

[2] = system: blackgrass; experiment: Test B pre/postemergence blackgrass; assay type: in vivo, Alopecurus myosuroides
Outline: as §1

[3] = system: surinam grass; experiment: Test B pre/postemergence surinam grass; assay type: in vivo, Brachiaria decumbens
Outline: as §1

[4] = system: cocklebur; experiment: Test B pre/postemergence cocklebur; assay type: in vivo, Xanthium strumarium
Outline: as §1

[5] = system: corn; experiment: Test B pre/postemergence corn; assay type: in vivo, Zea mays
Outline: as §1

[6] = system: crabgrass; experiment: Test B pre/postemergence crabgrass; assay type: in vivo, Digitaria sanguinalis
Outline: as §1

[7] = system: giant foxtail; experiment: Test B pre/postemergence giant foxtail; assay type: in vivo, Setaria faberii
Outline: as §1

[8] = system: morningglory; experiment: Test B pre/postemergence morningglory; assay type: in vivo, Ipomoea hederacea
Outline: as §1

[9] = system: pigweed; experiment: Test B pre/postemergence pigweed; assay type: in vivo, Amaranthus retroflexus
Outline: as §1

[10] = system: rape; experiment: Test B pre/postemergence rape; assay type: in vivo, Brassica napus
Outline: as §1

[11] = system: soybean; experiment: Test B pre/postemergence soybean; assay type: in vivo, Glycine max
Outline: as §1

[12] = system: sugar beet; experiment: Test B pre/postemergence sugar beet; assay type: in vivo, Beta vulgaris
Outline: as §1

[13] = system: velvetleaf; experiment: Test B pre/postemergence velvetleaf; assay type: in vivo, Abutilon theophrasti
Outline: as §1

[14] = system: wheat; experiment: Test B pre/postemergence wheat; assay type: in vivo, Triticum aestivum
Outline: as §1

[15] = system: wild oat; experiment: Test B pre/postemergence wild oat; assay type: in vivo, Avena fatua
Outline: as §1

[16] = system: purple nutsedge; experiment: Test B pre/postemergence purple nutsedge; assay type: in vivo, Cyperus rotundus
Outline: as §1

[17] = Postemergence, Rate 62 g/ha, scale of 0 to 10, 0 is no effect, 10 is complete control
[18] = Postemergence, Rate 125 g/ha, scale 0 to 10, 0 is no effect, 10 is complete control
[19] = Postemergence, Rate 500 g/ha, scale 0 to 10, 0 is no effect, 10 is complete control
[20] = Preemergence, Rate 62 g/ha, scale of 0 to 10 where 0 is no effect and 10 is complete control
[21] = Preemergence, Rate 125 g/ha, scale 0 to 10, 0 is no effect, 10 is complete control
[22] = Preemergence, Rate 500 g/ha, scale of 0 to 10 where 0 is no effect and 10 is complete control
[23] = Rate 250 g/ha, Postemergence, scale of 0 to 10 where 0 is no effect and 10 is complete control

CC(C)N(C(=O)n1oc(=O)n(CCC(F)(F)F)c1=O)c1ccc(F)cc1F [Compound 525]
7: Blackgrass plant response rating [2, 21]
10: Crabgrass plant response rating (0 to 10 scale) ([6]; Preemergence, Rate 250 g/ha) | Crabgrass plant response rating [6, 22] | Giant foxtail plant response rating [7, 21] | Giant foxtail plant response rating (0 to 10 scale) ([7]; Preemergence, Rate 250 g/ha) | Giant foxtail plant response rating [7, 22]
4: Blackgrass plant response rating [2, 17] | Corn plant response rating (0 to 10 scale) ([5]; Preemergence, Rate 250 g/ha) | Rape plant response rating [10, 22] | Velvetleaf plant response rating [13, 22] | Plant response rating, Wild oats [15, 23]
5: Giant foxtail plant response rating [7, 17] | Soybean plant response rating [11, 18] | Plant response rating, Soybean [11, 23] | Plant response rating, Sugarbeets [12, 20] | Plant response rating, Wheat [14, 19] | Plant response rating, Wheat [14, 23] | Plant response rating, Wild oats [15, 20] | Plant response rating, Nutsedge [16, 19] | Plant response rating, Nutsedge [16, 23]
2: B. signalgrass plant response rating [3, 18] | Plant response rating, B. signalgrass [3, 23] | Cocklebur plant response rating [4, 17] | Cocklebur plant response rating [4, 18] | Plant response rating, Cocklebur [4, 19] | Plant response rating, Cocklebur [4, 23] | Plant response rating, Corn [5, 19] | Plant response rating, Corn [5, 23] | Morningglory plant response rating [8, 17] | Morningglory plant response rating [8, 18] | Plant response rating, Morningglory [8, 23] | Redroot pigweed plant response rating [9, 17] | Redroot pigweed plant response rating [9, 18] | Velvetleaf plant response rating [13, 17] | Plant response rating, Velvetleaf [13, 20] | Wheat plant response rating [14, 18] | Wild oats plant response rating [15, 18]
6: Blackgrass plant response rating [2, 18] | Crabgrass plant response rating [6, 17] | Morningglory plant response rating [8, 22] | Plant response rating, Sugarbeets [12, 23] | Plant response rating, Wild oats [15, 19]
8: Plant response rating, Blackgrass [2, 19] | Plant response rating, Blackgrass [2, 20] | Blackgrass plant response rating [2, 22] | Plant response rating, Blackgrass [2, 23] | Plant response rating, B. signalgrass [3, 19] | Corn plant response rating [5, 22] | Giant foxtail plant response rating [7, 18] | Plant response rating, Redroot pigweed [9, 19] | Plant response rating, Rape [10, 19] | Plant response rating, Sugarbeets [12, 19] | Sugarbeets plant response rating [12, 21] | Wild oats plant response rating [15, 22]
0: Plant response rating, Bedstraw ([1]; Rate 62 g/ha, scale of 0 to 10 where 0 is no effect and 10 is complete control) | Bedstraw plant response rating ([1]; Rate 125 g/ha, scale 0 to 10, 0 is no effect, 10 is complete control) | Bedstraw plant response rating (0 to 10 scale) ([1]; Rate 250 g/ha) | Bedstraw plant response rating ([1]; Rate 500 g/ha, scale of 0 to 10 where 0 is no effect and 10 is complete control) | B. signalgrass plant response rating [3, 17] | Plant response rating, Cocklebur [4, 20] | Cocklebur plant response rating [4, 21] | Cocklebur plant response rating (0 to 10 scale) ([4]; Preemergence, Rate 250 g/ha) | Corn plant response rating [5, 17] | Corn plant response rating [5, 18] | Plant response rating, Corn [5, 20] | Corn plant response rating [5, 21] | Plant response rating, Morningglory [8, 20] | Morningglory plant response rating [8, 21] | Morningglory plant response rating (0 to 10 scale) ([8]; Preemergence, Rate 250 g/ha) | Plant response rating, Redroot pigweed [9, 20] | Redroot pigweed plant response rating [9, 21] | Rape plant response rating [10, 17] | Rape plant response rating [10, 18] | Plant response rating, Rape [10, 20] | Rape plant response rating [10, 21] | Plant response rating, Soybean [11, 20] | Soybean plant response rating [11, 21] | Soybean plant response rating (0 to 10 scale) ([11]; Preemergence, Rate 250 g/ha) | Soybean plant response rating [11, 22] | Sugarbeets plant response rating [12, 17] | Sugarbeets plant response rating [12, 18] | Wheat plant response rating [14, 17] | Wild oats plant response rating [15, 17] | Nutsedge plant response rating [16, 17] | Nutsedge plant response rating [16, 18] | Plant response rating, Nutsedge [16, 20] | Nutsedge plant response rating [16, 21] | Nutsedge plant response rating (0 to 10 scale) ([16]; Preemergence, Rate 250 g/ha) | Nutsedge plant response rating [16, 22]
3: Plant response rating, Morningglory [8, 19] | Redroot pigweed plant response rating [9, 22] | Plant response rating, Rape [10, 23] | Soybean plant response rating [11, 17] | Velvetleaf plant response rating [13, 18] | Plant response rating, Velvetleaf [13, 19] | Velvetleaf plant response rating [13, 21] | Velvetleaf plant response rating (0 to 10 scale) ([13]; Preemergence, Rate 250 g/ha) | Plant response rating, Velvetleaf [13, 23] | Plant response rating, Wheat [14, 20] | Wheat plant response rating [14, 22]
9: Plant response rating, B. signalgrass [3, 20] | B. signalgrass plant response rating [3, 22] | Plant response rating, Crabgrass [6, 19] | Plant response rating, Crabgrass [6, 20] | Crabgrass plant response rating [6, 21] | Plant response rating, Crabgrass [6, 23] | Plant response rating, Giant foxtail [7, 19] | Plant response rating, Giant foxtail [7, 20] | Plant response rating, Giant foxtail [7, 23] | Plant response rating, Redroot pigweed [9, 23] | Sugarbeets plant response rating [12, 22]
